Where two headings read alike, the source gives them in different places.
Assays:
c-KIT = c-KIT (Homo sapiens, UniProt P10721); test: Kinase inhibition activity test, isotope labeling: c-KIT; type: biochemical; conditions: for inhibition at 10 µM / Activity inhibition rate c-Kit (h): test compound at a concentration of 10 μM; for inhibition at 10 µM: read-out: Activity inhibition rate c-Kit (h); for IC50: ATP 200 μM, read-out: c-KIT IC50 value (inhibitory activity value)
Protocol: The purpose of this experiment was to test the inhibitory activity of the compound of the invention for in vitro kinase with the isotope labeling method (the γ phosphate group on ATP was labeled). In this experiment, the in vitro activity inhibition of such kinases as FLT3, VEGFR2, FLT1, FLT4, RET, c-RAF, B-RAF, c-KIT, PDGFα, PDGFβ, FGFR2, FGFR1, EphA2, EphB2, SRC, ABL, ALK and Met was tested respectively. Staurosporine was reference molecule (or referred to as positive control). The kinase inhibition activity of the test compound was expressed by half-inhibitory concentration (IC50) or the kinase activity inhibition rate of the test compound at a concentration of 10 μM. The IC50 value could be obtained by calculating the kinase activity inhibition rate of the test compound at different concentrations.
20 mM 3-(N-morpholinyl)propanesulfonic acid (MOPS); 1 mM ethylenediaminetetraacetic acid (EDTA), 0.01% Brij 35 (Brij-35), 5% glycerol, 0.1% mercaptoethanol, 1 mg/mL bovine serum albumin (BSA), 10 mM manganous dichloride solution (MnCl2), 0.1 mg/mL glutamic acid/tyrosine (4:1) polypeptide (poly(Glu, Tyr)4:1), 50 μM EAIYAAPFAKKK (substrate of FLT3), 0.33 mg/mL myelin basic protein (substrate of VEGFR2), 250 μM KKKSPGEYVNIEFG (substrate of FLT1(h)), 500 μM GGEEEEYFELVKKKK (substrate of FLT4(h)), 250 μM KKKSPGEYVNIEFG (substrate of RET), 0.66 mg/mL myelin basic protein (substrate of C-RAF), 250 μM GGMEDIYFEFMGGKKK (substrate of c-Kit), 250 μM GGMEDIYFEFMGGKKK (substrate of PDGFα), 250 μM KKKSPGEYVNIEFG (substrate of FGFR1), […] GGEEEEYFELVKKKK (substrate of SRC), 50 μM EAIYAAPFAKKK (substrate of ABL), 250 μM KKKSPGEYVNIEFG (substrate of ALK), 250 μM KKKSPGEYVNIEFG (substrate of Met(h)), 10 mM magnesium acetate and γ-^33 P-ATP solution, stop buffer (3% phosphate buffer), washing buffer (75 mM phosphate solution), methanol, Filtermat A membrane, FLT3, VEGFR2, FLT3, VEGFR2, FLT1, FLT4, RET, c-RAF, B-RAF, c-KIT, PDGFRα, PDGFRβ, FGFR2, FGFR1, EphA2, EphB2, SRC, ABL, ALK, Met and other kinases, and the test compounds.
Buffers (8 mM MOPS with pH value of 7.0, 0.2 mM EDTA and 10 mM MnCl2), (5-10 mU) kinases to be tested (FLT3, VEGFR2, FLT1, FLT4, RET, c-RAF, B-RAF, c-KIT, PDGFRα, PDGFRβ, FGFR2, FGFR1, EphA2, EphB2, SRC, ABL, ALK and Met), substrates of kinases to be tested (refer to experimental materials), 10 mM magnesium acetate and γ-^33 P-ATP solution, and test compounds at different concentrations were added to a reaction tube orderly. […] Reaction was terminated with 5 μL 3% phosphate buffer finally, and 10 μL reaction solution was titrated to the Filtermat A membrane; solution was washed for 3 times with 75 mM phosphate solution with each time lasting 5 minutes, and then washed once with methanol. Finally, the Filtermat A membrane was dried, and scintillation counting was performed on the membrane, with scintillation count reflecting the phosphorylation degree of the substrates, so that the activity inhibition of kinase could be characterized.

[1] = system: human gastric carcinoma cell line MKN-45; test: In vitro tumor cell proliferation inhibition (MTT): MKN-45; type: cell-based
Text: (§1) The purpose of the experiment was to test the inhibition activity of the compounds of the invention for in vitro human tumor cell proliferation by the methyl thiazolyl tetrazolium (MTT) colorimetry.
(§2) Main reagents: RPMI-1640, fetal bovine serum, pancreatin, etc. were purchased from Gibco BRL Company (Invitrogen Corporation, USA) and IMDM medium that was purchased from American Type Culture Collection (ATCC). Methyl thiazolyl tetrazolium (MTT) and dimethyl sulfoxide (DMSO) were products from Sigma Company (USA). Pyrazolopyrimidine derivatives were composed by the inventor. During in vitro experiment, 100% DMSO was prepared into 10 mM storage solution, the solution was stored in a refrigerator at −20° C. for future use, and was diluted to the required concentration with complete culture solution before use.
(§3) Cell line and culture: Human leukemia cell line MV4-11, Jurkat, K562, human thyrophyma cell line TT, human gastric carcinoma cell line MKN-45, human malignant melanoma cell lines A375 and A875, human pancreatic carcinoma cell line panc-1, human cervical carcinoma cell line HELA, human colorectal carcinoma cell line HCT116, etc. were purchased from American type culture collection and were preserved by this laboratory. All leukemia cell lines (except MV4-11), gastric carcinoma cell lines and thyrophyma cell lines were cultured in RPMI-1640 complete medium containing 10% fetal bovine serum, 100 U/mL penicillin and 100 μg/mL streptomycin at 37° C. in 5% CO2. The remaining cell lines were cultured in DMEM complete medium containing 10% fetal bovine serum (containing 20% MV4-11 cell), 100 U/mL penicillin and 100 µg/mL streptomycin at 37° C. in 5% CO2.
(§4) Cell suspension with cell concentration of 1-2×10^4/mL was adjusted with the complete cell medium and inoculated in a 96-well plate, with each well filled with 200 μl cell suspension that was cultured overnight. On the next day, supernatant was sucked and abandoned (supernatant was sucked upon centrifugation of suspension cells), and then cells were processed with test compounds at gradient concentrations respectively. Meanwhile, a negative control group free from drug and a solvent control group with equal volume were set, and the DMSO concentration was 0.1%. Each dose group was provided with three wells and cultured at 37° C. in 5% CO2. After 72 hours, 20 μl 5 mg/mL MTT reagent was added to each well, and cultured for another 2 to 4 hours, the supernatant was abandoned; 150 μL DMSO was added to each well again, vibrated and mixed evenly for 15 minutes; the absorbance (A) values (proportional to living cell amount) were determined with a microplate reader (λ=570 nm) and averaged. […] Experiment was repeated for 3 times at least. Experimental data were expressed with means, data statistics were tested by t, and P<0.05 means that difference has a statistical significance. The cell proliferation inhibition effects of all compounds as follows are expressed by IC50 or inhibition rate.

[2] = system: human malignant melanoma cell line A375; test: In vitro tumor cell proliferation inhibition (MTT): A375; type: cell-based
Text: as §1, §2, §3, §4

[3] = system: human malignant melanoma cell line A875; test: In vitro tumor cell proliferation inhibition (MTT): A875; type: cell-based
Text: as §1, §2, §3, §4

[4] = system: human leukemia cell line Jurkat; test: In vitro tumor cell proliferation inhibition (MTT): Jurkat; type: cell-based; conditions: 72 hours
Text: as §1, §2, §3, §4

[5] = system: human colorectal carcinoma cell line HCT116; test: In vitro tumor cell proliferation inhibition (MTT): HCT116; type: cell-based
Text: as §1, §2, §3, §4

[6] = system: human cervical carcinoma cell line HELA; test: In vitro tumor cell proliferation inhibition (MTT): HELA; type: cell-based; conditions: 72 hours
Text: as §1, §2, §3, §4

[7] = Homo sapiens, HCT-116, 72 hours
[8] = 72 hours, read-out: Proliferation inhibition activity (IC50) HCT 116

Chain of c-KIT (P10721 26-976): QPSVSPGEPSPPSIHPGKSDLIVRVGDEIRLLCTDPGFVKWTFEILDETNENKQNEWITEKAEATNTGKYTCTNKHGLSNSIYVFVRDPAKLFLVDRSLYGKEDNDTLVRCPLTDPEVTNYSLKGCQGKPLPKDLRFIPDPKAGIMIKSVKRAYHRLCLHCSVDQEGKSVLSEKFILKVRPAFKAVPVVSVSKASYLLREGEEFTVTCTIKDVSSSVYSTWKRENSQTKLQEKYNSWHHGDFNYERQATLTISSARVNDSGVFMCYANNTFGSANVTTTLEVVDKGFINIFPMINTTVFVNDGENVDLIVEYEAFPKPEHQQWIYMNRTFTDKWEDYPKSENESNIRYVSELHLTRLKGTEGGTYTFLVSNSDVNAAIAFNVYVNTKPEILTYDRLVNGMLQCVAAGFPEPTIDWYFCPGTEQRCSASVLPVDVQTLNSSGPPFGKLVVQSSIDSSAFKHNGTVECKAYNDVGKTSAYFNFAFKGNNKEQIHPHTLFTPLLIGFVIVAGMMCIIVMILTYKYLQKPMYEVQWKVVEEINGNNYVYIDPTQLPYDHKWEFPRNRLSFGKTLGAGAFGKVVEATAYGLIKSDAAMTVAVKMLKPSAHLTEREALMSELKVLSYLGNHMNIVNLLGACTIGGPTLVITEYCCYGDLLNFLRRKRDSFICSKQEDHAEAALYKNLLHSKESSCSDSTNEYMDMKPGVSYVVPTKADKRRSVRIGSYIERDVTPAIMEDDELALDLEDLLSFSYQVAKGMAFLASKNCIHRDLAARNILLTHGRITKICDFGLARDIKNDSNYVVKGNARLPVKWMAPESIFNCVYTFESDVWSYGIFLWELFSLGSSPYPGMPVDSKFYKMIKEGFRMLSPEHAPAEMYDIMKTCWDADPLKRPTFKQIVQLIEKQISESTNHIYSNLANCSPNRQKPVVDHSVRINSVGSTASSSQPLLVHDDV

Structure (SMILES) | inhibition at 10 µM (c-KIT) | IC50 ([1]; Homo sapiens, MKN-45, 72 hours) | IC50 ([2]; Homo sapiens, A-375, 72 hours) | IC50 ([3]; Homo sapiens, A875, 72 hours) | IC50 ([4]; Homo sapiens, Jurkat) | IC50 [5, 7] | IC50 ([6]; Homo sapiens, HeLa) | IC50 (c-KIT) | Activity inhibition rate c-Kit (h) (c-KIT) | IC50 ([1]; 72 hours) | IC50 ([2]; 72 hours) | IC50 ([3]; 72 hours) | IC50 [4] | IC50 [5, 8] | IC50 [6]
O=C(Nc1ccc(Oc2ncnc3[nH]ncc23)cc1)Nc1cc(C(F)(F)F)on1 [4a-28] | > 90% | 3 to 10 µM | < 50 µM | < 50 µM | 3 to 10 µM | < 50 µM | < 50 µM |  |  |  |  |  |  |  | 
C[C@@H](NC(=O)Nc1ccc(Nc2ncnc3[nH]ncc23)cc1)c1ccccc1 [4b-2, (R)-1-(4-(1H-pyrazolopyrimidine-4-amido)phenyl)-3-(1-phenethyl)urea] | > 30% | < 50 µM | < 50 µM | < 50 µM | < 50 µM | < 50 µM | < 50 µM |  |  |  |  |  |  |  | 
CC(C)(C)c1cc(NC(=O)Nc2ccc(Oc3ncnc4[nH]ncc34)cc2)on1 [4a-25] |  |  |  |  |  |  |  | 0.911 µM | >90% | 1.3 µM | 3 to 10 µM | 3 to 10 µM | < 50 µM | 3 to 10 µM | 3 to 10 µM
C[C@H](NC(=O)Nc1ccc(Oc2ncnc3[nH]ncc23)cc1)c1ccccc1 [4a-18, (S)-1-(4-((1H-pyrazolopyrimidine-4-yl)oxy)phenyl)-3-(1-phenethyl)urea] |  |  |  |  |  |  |  |  | 100% | < 50 µM | < 50 µM | < 50 µM | 3 to 10 µM | < 50 µM | < 50 µM
O=C(Nc1ccc(Oc2ncnc3[nH]ncc23)cc1)Nc1ccc(N2CCOCC2)cc1 [4a-16, 1-(4-((1H-pyrazolopyrimidine-4-yl)oxy)phenyl)-3-(4-morpholinylphenyl)urea] | 77% | 3.22 µM | < 50 µM | < 50 µM | < 50 µM | < 50 µM | < 50 µM |  |  |  |  |  |  |  | 
CC(C)(C)c1cc(NC(=O)Nc2ccc(Oc3ncnc4[nH]ncc34)cc2)no1 [4a-26] | > 90% | 1.12 µM | 3 to 10 µM | 3 to 10 µM | 3 to 10 µM | 3 to 10 µM | 3 to 10 µM |  |  |  |  |  |  |  | 
COc1ccc(NC(=O)Nc2ccc(NC(=O)N3C=NC=C4NNC=C43)cc2)cc1 [4b-6, 1-(4-(1H-pyrazolopyrimidine-4-amido)phenyl)-3-(4-methoxyphenyl)urea] | > 30% | < 50 µM | < 50 µM | < 50 µM | < 50 µM | < 50 µM |  |  |  |  |  |  |  |  | 
CC(C)n1ncc2c(Oc3ccc(NC(=O)Nc4cc(C(C)(C)C)on4)cc3)ncnc21 [5a-4, 1-(5-tert-butylisoxazol-3-yl)-3-(4-(1-isopropyl-(1H-pyrazolopyrimidine-4-yl)oxy)phenyl)urea] | > 30% | < 50 µM | < 50 µM | < 50 µM | < 50 µM | < 50 µM |  |  |  |  |  |  |  |  | 
C[C@H](NC(=O)Nc1ccc(Nc2ncnc3[nH]ncc23)cc1)c1ccccc1 [4b-4] |  |  |  |  |  |  |  |  | >30% | < 50 µM | < 50 µM | < 50 µM | < 50 µM | < 50 µM | < 50 µM
O=C(Nc1ccc(Oc2ncnc3[nH]ncc23)cc1)Nc1ccc(C(F)(F)F)cc1 [4a-1] | 100% | < 50 µM | < 50 µM | 3 to 10 µM | < 50 µM | < 50 µM | < 50 µM |  |  |  |  |  |  |  | 
O=C(Nc1ccc(Sc2ncnc3[nH]ncc23)cc1)Nc1cccc(C(F)(F)F)c1 [4c-2] |  |  |  |  |  |  |  |  | >90% | 8.71 µM | < 50 µM | < 50 µM | < 50 µM |  | 
CC(C)(C)c1cc(NC(=O)Nc2ccc(Oc3ncnc4[nH]ncc34)cc2)n(-c2ccccc2)n1 [4a-24] |  |  |  |  |  |  |  |  | >90% | 2.84 µM | 6.94 µM | 4.27 µM |  | 6.75 µM | 5.51 µM
O=C(Nc1ccc(NC(=O)N2C=NC=C3NNC=C32)cc1)Nc1ccc(Cl)c(C(F)(F)F)c1 [4b-5, 1-(4-(1H-pyrazolopyrimidine-4-amido)phenyl)-3-(4-chloro-3-(trifluoromethyl)phenyl)urea] | > 30% | 7.64 µM |  |  |  |  |  |  |  |  |  |  |  |  | 
O=C(Nc1ccc(Sc2ncnc3[nH]ncc23)cc1)Nc1ccc(C(F)(F)F)cc1 [4c-1] | > 90% |  | < 50 µM | < 50 µM | < 50 µM |  |  |  |  |  |  |  |  |  | 
CC(C)(C)c1cc(NC(=O)Nc2ccc(Oc3ncnc4[nH]ncc34)c(F)c2)no1 [4a-31] |  |  |  |  |  |  |  | 0.087 µM | >90% | < 50 µM | 3 to 10 µM | 3 to 10 µM | 6.1 µM |  | 3 to 10 µM
Cc1cc(C)c(NC(=O)Nc2ccc(NC(=O)N3C=NC=C4NNC=C43)cc2)c(C)c1 [4b-7, 1-(4-(1H-pyrazolopyrimidine-4-amido)phenyl)-3-(2,4,6-trimethylphenyl)urea] | > 30% | < 50 µM | < 50 µM | < 50 µM | < 50 µM | < 50 µM |  |  |  |  |  |  |  |  | 
C[C@@H](NC(=O)Nc1ccc(Oc2ncnc3[nH]ncc23)cc1)c1ccccc1 [4a-19, (R)-1-(4-((1H-pyrazolopyrimidine-4-yl)oxy)phenyl)-3-(1-phenethyl)urea] |  |  |  |  |  |  |  |  | 93% | < 50 µM | < 50 µM | < 50 µM |  | < 50 µM | < 50 µM

From US9828375B2, “4-position substituted pyrazolopyrimidine derivative, and use thereof in drug preparation” (Guangxi Wuzhou Pharmaceuticals (Group) Co., Ltd., priority 2012, dated 2017)
